Assay results from ChEMBL document CHEMBL1146897, “A chloroquine-like molecule designed to reverse resistance in Plasmodium falciparum” (J Med Chem, 2006).

Key:
Plasmodium falciparum [1] = test: Antimalarial activity against chloroquine-sensitive Plasmodium falciparum D6; type: functional, organism-based
Plasmodium falciparum [2] = test: Antimalarial activity against chloroquine-resistant Plasmodium falciparum Dd2; type: functional, organism-based
Plasmodium chabaudi = test: Antimalarial activity in Plasmodium chabaudi infected CF1 mice (Mus musculus) at 64 mg/kg over 4 days

SMILES: CN(CCCNc1ccnc2cc(Cl)ccc12)CCCN1c2ccccc2CCc2ccccc21
- IC50 (Plasmodium falciparum [1]): 2.9 nM
- IC50 (Plasmodium falciparum [2]): 5.3 nM
- Activity (Plasmodium chabaudi): >99%
